Measurements as given in the NIST ThermoML archive (doi:10.1016/j.jct.2005.03.020).

How the values were obtained:
[1] = xn = mol fraction of the nth substance listed; conditions: 298.15 K, 101.33 kPa, Liquid
[2] = excess molar enthalpy (molar enthalpy of mixing); xn = mol fraction of the nth substance listed; conditions: 298.15 K, 101.33 kPa, Liquid

ClCCCCCl [1,4-dichlorobutane] + CCOC(C)=O
Conditions	excess molar enthalpy [kcal/mol]	mass density [kg/m3]
[1], x2 = 0.0693	–	1118.08
[1], x2 = 0.1314	–	1104.46
[1], x2 = 0.1955	–	1090.4
[1], x2 = 0.2579	–	1076.44
[1], x2 = 0.3205	–	1062.24
[1], x2 = 0.3812	–	1048.26
[1], x2 = 0.442	–	1034.12
[1], x2 = 0.5019	–	1019.95
[1], x2 = 0.5602	–	1006.01
[1], x2 = 0.6172	–	992.21
[1], x2 = 0.6757	–	977.84
[1], x2 = 0.7842	–	950.68
[1], x2 = 0.8386	–	936.74
[1], x2 = 0.8929	–	922.7
[1], x2 = 0.9453	–	908.9
[2], x2 = 0.0692	-0.00201	–
[2], x2 = 0.1414	-0.00473	–
[2], x2 = 0.2133	-0.00848	–
[2], x2 = 0.2818	-0.0131	–
[2], x2 = 0.347	-0.0181	–
[2], x2 = 0.4035	-0.0231	–
[2], x2 = 0.4514	-0.0274	–
[2], x2 = 0.4919	-0.0309	–
[2], x2 = 0.5264	-0.0339	–
[2], x2 = 0.5571	-0.0363	–
[2], x2 = 0.5836	-0.0386	–
[2], x2 = 0.6072	-0.0403	–
[2], x2 = 0.6278	-0.0414	–
[2], x2 = 0.6525	-0.0423	–
[2], x2 = 0.7106	-0.0388	–
[2], x2 = 0.7719	-0.0344	–
[2], x2 = 0.8337	-0.0275	–
[2], x2 = 0.8915	-0.0193	–
[2], x2 = 0.9475	-0.00997	–

ClCCCCCl [1,4-dichlorobutane] + CCCC(=O)OCC
Conditions	excess molar enthalpy, [2] [kcal/mol]	mass density, [1] [kg/m3]
x2 = 0.0516	-0.00502	1117.97
x2 = 0.1009	–	1103.15
x2 = 0.1108	-0.0127	–
x2 = 0.1531	–	1087.78
x2 = 0.172	-0.0208	–
x2 = 0.2042	–	1072.99
x2 = 0.2328	-0.0297	–
x2 = 0.2583	–	1057.63
x2 = 0.2891	-0.0397	–
x2 = 0.3128	–	1042.49
x2 = 0.3455	-0.0467	–
x2 = 0.3701	–	1026.87
x2 = 0.3976	-0.053	–
x2 = 0.4267	–	1011.74
x2 = 0.4477	-0.0578	–
x2 = 0.4757	-0.0598	–
x2 = 0.5265	-0.0616	–
x2 = 0.5437	–	981.4
x2 = 0.5821	-0.0614	–
x2 = 0.6058	–	965.8
x2 = 0.6443	-0.0597	–
x2 = 0.6681	–	950.44
x2 = 0.7111	-0.0554	–
x2 = 0.7293	–	935.66
x2 = 0.7821	-0.0468	–
x2 = 0.8567	-0.0343	–
x2 = 0.8601	–	905.05
x2 = 0.9259	–	890.1
x2 = 0.9323	-0.0189	–
